Measurements reported in article PMC7050258, “Inhibition of MGAT2 modulates fat‐induced gut peptide release and fat intake in normal mice and ameliorates obesity and diabetes in ob/ob mice fed on a high‐fat diet” (FEBS Open Bio, 2020).
Values joined by “and” are separate entries in the source; they are usually repeats but may differ in a detail not shown here. Equal entries are not always repeated.

What was measured:
rats fed a 35% fat diet = system: rats fed a 35% fat diet; parameters: method as in PMID 25857225; conditions: cited from earlier work
HFD-fed ob/ob mice = HFD-fed ob/ob mice study; type: in vivo, mouse
Method: Male ob/ob mice were fed an HFD (D12451; Research Diets, Inc.) from 8 weeks of age to the end of the study. After 2 weeks of HFD feeding, the mice were divided into groups based on their body weight, food intake, glycated hemoglobin (GHb), and plasma biochemical parameters. […] Compounds were suspended in 0.5% methylcellulose. Body weight and food intake were monitored during the study. On day 34, blood was collected and GHb and plasma biochemical parameters were measured. In addition, body composition was analyzed by EchoMRI‐900 (Hitachi Aloka Medical, Ltd., Tokyo, Japan). On day 36, the mice in the vehicle‐ and CpdB‐treated group were individually placed in the metabolic chamber of an Oxymax system (Columbus Instruments, Columbus, OH, USA). After 3 h of adaptation, oxygen consumption (VO2) and carbon dioxide production (VCO2) were analyzed for 22 h (from 13:00 to 11:00). During the measurement, dosing of vehicle or CpdB was performed at 18:00. Respiratory quotient (RQ) and energy expenditure (EE) were calculated with the following formulas: RQ=VCO2/VO2 EEkcal/h=3.815+1.232×VCO2/VO2×VO2
Blood samples were collected from the tail or facial vein without anesthesia and centrifuged at 1500 g for 10 min at 4 °C to isolate the plasma. To prevent degradation of incretin hormone, blood samples were treated with not only heparin/aprotinin but also a dipeptidyl peptidase‐4 (DPP‐4) inhibitor. Plasma alanine aminotransferase […] levels were measured by an Autoanalyzer 7180 (Hitachi High‐Technologies Corporation, Tokyo, Japan). GHb was measured with an automated GHb analyzer (HLC‐723G8; Tosoh, Tokyo, Japan). Plasma insulin was measured with an ELISA kit (Shibayagi Co., Ltd., Gunma, Japan). Plasma levels of total GLP‐1 and total PYY were also measured with an ELISA kit (Wako Pure Chemicals).

C57BL/6J mice = test: Food choice test (HFD vs LFD); type: in vivo, mouse; conditions: overnight, CpdB 10 mg/kg oral, liraglutide 0.04 mg/kg sc
Method: The choice between HFD (D12451; Research Diets, Inc.) and low‐fat diet (LFD, 10% kcal fat, 3.8 kcal·g^−1; D124510B; Research Diets, Inc.) was assessed in C57BL/6J mice. Following habituation to normal chow, HFD and LFD were presented in separate containers simultaneously, and overnight food intake of each diet was monitored. The mice were divided into groups based on the data of food intake and body weight. Then, vehicle or CpdB (10 mg·kg^−1) was orally administered, and the overnight food intake of each diet was monitored. CpdB was suspended in 0.5% methylcellulose. As a positive control, liraglutide (0.04 mg·kg^−1) dissolved in 10% DMSO/saline was subcutaneously administered.

rats = system: rats; parameters: method as in PMID 22301859; conditions: cited from earlier work
[1] = CpdB 30 mg/kg, pioglitazone 3 mg/kg oral once daily, mean
[2] = CpdB 30 mg/kg, pioglitazone 3 mg/kg oral once daily, single animal values
[3] = EchoMRI, day 34, CpdB 30 mg/kg, pioglitazone 3 mg/kg, mean
[4] = EchoMRI, day 34, CpdB 30 mg/kg, pioglitazone 3 mg/kg, single animal values
[5] = day 34, CpdB 30 mg/kg, pioglitazone 3 mg/kg oral once daily, mean ± SD, n=8

CC(C)(C)c1cc(C(C)(C)C)nc(N2CCn3c(nnc3-c3ccc(OC(F)(F)F)cc3)C2)n1 [JTP‐103237]
increase of plasma levels of PYY after lipid loading (rats fed a 35% fat diet): enhance the increase

CCc1ccc(CCOc2ccc(CC3SC(=O)NC3=O)cc2)nc1 (stereo not shown) [Pioglitazone, pioglitazone, reference compound]
Body weight change from initial, AVE (HFD-fed ob/ob mice; [1]): 30.48%
Cumulative food intake, AVE (HFD-fed ob/ob mice; [1]): 136.37 g
Body weight change from initial, individual animal (HFD-fed ob/ob mice; [2]): 29.04% and 29.60% and 25.91% and 30.72% and 29.56% and 32.63% and 37.29%
Cumulative food intake, individual animal (HFD-fed ob/ob mice; [2]): 144.84 g and 134.34 g and 122.14 g and 143.74 g and 138.07 g and 136.64 g and 133.11 g and 138.10 g
Body composition, Fat, AVE (HFD-fed ob/ob mice; [3]): 63.35%
Body composition, Lean, AVE (HFD-fed ob/ob mice; [3]): 36.65%
Body composition, Fat, individual animal (HFD-fed ob/ob mice; [4]): 62.74% and 63.31% and 66.38% and 62.25% and 63.50% and 61.77% and 61.53% and 65.34%
Body composition, Lean, individual animal (HFD-fed ob/ob mice; [4]): 33.62% and 37.75% and 36.50% and 38.23% and 38.47% and 37.26% and 36.69%
GHb, Pre (HFD-fed ob/ob mice; before dosing, mean ± SD, n=8): 5.9 ± 0.3%
Plasma AST, Pre (HFD-fed ob/ob mice; before dosing, mean ± SD, n=8): 314 ± 61 U·L^−1
Plasma insulin, Pre (HFD-fed ob/ob mice; before dosing, mean ± SD, n=8): 103 ± 29 ng/mL
ΔGHb, AVE (HFD-fed ob/ob mice; change 34 days after repeated dosing, CpdB 30 mg/kg, pioglitazone 3 mg/kg oral once daily, mean): -1.01%
ΔGHb, individual animal (HFD-fed ob/ob mice; change 34 days after repeated dosing, CpdB 30 mg/kg, pioglitazone 3 mg/kg, single animal values): -1.00% and -0.90% and -1.10% and -1.40% and -0.70% and -0.80%
GHb, Post (HFD-fed ob/ob mice; [5]): 4.9 ± 0.4 %
Plasma ALT, Post (HFD-fed ob/ob mice; [5]): 803 ± 132 U·L^−1
Plasma AST, Post (HFD-fed ob/ob mice; [5]): 733 ± 174 U·L^−1
Plasma insulin, Post (HFD-fed ob/ob mice; day 34, CpdB 30 mg/kg, pioglitazone 3 mg/kg oral once daily, nonfasting, mean ± SD, n=8): 30.8 ± 16 ng/mL

Liraglutide
Food intake, energy intake of HFD, AVE (C57BL/6J mice; mean, N=5): 6.46 kcal
Food intake, energy intake of low-fat diet, AVE (C57BL/6J mice; mean, N=5): 0.24 kcal
Food intake, total energy intake, AVE (C57BL/6J mice; mean, N=5): 6.69 kcal
Food intake, energy intake of HFD, individual animal (C57BL/6J mice; single animal values): 6.02 kcal and 8.08 kcal and 6.16 kcal and 4.18 kcal and 7.85 kcal
Food intake, energy intake of low-fat diet, individual animal (C57BL/6J mice; single animal values): 0.00 kcal and 0.19 kcal and 0.34 kcal and 0.27 kcal and 0.38 kcal
Food intake, total energy intake, individual animal (C57BL/6J mice; single animal values): 6.02 kcal and 8.27 kcal and 6.50 kcal and 4.45 kcal and 8.23 kcal
intake of highly palatable diet (rats): predominantly reduce the intake of highly palatable diet
